Laboratory results as given in patent US9974801B2, “Methods of treating and preventing diseases and disorders of the central nervous system” (The United States of America, as represented by the …, priority 2012, dated 2018).

Key:
[1] = system: phagocytic microglia (jellyfish morphology); assay: Phagocytic (jellyfish) microglia after meningeal compression injury, 2P microscopy; type: in vivo, heterozygous CX3CR1-GFP mice; details: p<0.05; for percentage of phagocytic (jellyfish) microglia in the imaging field: antagonist in aCSF applied to skull bone 30 min prior to injury, quantified 3 hrs post-injury, vs vehicle, FIG. 3
Experimental: (§1) Skull Thinning & Compression Injury. For imaging experiments, mice were anesthetized with ketamine (85 mg/kg), xylazine (13 mg/kg), and acepromazine (2 mg/kg) in PBS and maintained at a core temperature of 37° C. The skull bone over the barrel cortex was then thinned to a thickness of ˜30-40 μm as described (PMID: 20134419). For this procedure, the bone was manually thinned over a 30 minute period, and the amount of downward pressure was kept to a minimum. To induce a compression injury, the skull was thinned within 5 min to a thickness of ˜10-15 μm. Once thinned, the blunt of a surgical instrument was used to gently press the pliable skull bone downward. […] In one set of experiments, the skull bone was intentionally cracked to induce a severe injury. Imaging was performed immediately after injury.
Intravital two-photon laser scanning microscopy. Mice with a normally thinned or compressed skull bone were imaged using a Leica SP5 two-photon imaging system (Leica Microsystems, Bannockburn, Ill.) equipped with an 8000 Hz resonant scanner, a 20×/1.0 NA dipping objective, and two Mai Tai HP DeepSee Lasers (SpectraPhysics) tuned to 905, 920 or 970 nm. Fluorescence emission was separated by high efficiency custom dichroic mirrors (Semrock) and collected with a NDD4 external detector (Leica). Stacks of images were acquired using a step size of 1.0 μm to a depth of 150 μm. Time lapse movies were acquired with 1 min intervals between 3D stacks. For all imaging studies, the 20× lens was submerged directly into artificial cerebral spinal fluid (aCSF; 119 mM NaCl, 26.2 mM NaHCO3, 2.5 mm KCl, 1 mM NaH2PO4, 1.3 mM MgCl2, 1.2 mM CaCl2, 0.4% glucose, pH 7.4) placed atop the thinned skull.
Purinergic receptor, connexin hemichannel, and ROS antagonism. Prior to skull thinning, antagonists diluted in aCSF were applied directly to the skull bone, and vehicle was simultaneously applied to the opposite hemisphere to serve as a control. […] Vehicle and purinergic receptor antagonists were applied as a 3 mm diameter bubble on the skull surface and replenished as needed over a 30 min incubation period to prevent drying. This allowed the antagonists to continuously pass through the skull bone. Following the 30 min incubation, the skull was dried and then thinned to induce a compression injury over both hemispheres. Imaging was initiated immediately after injury. For most studies, the skull bone pre-incubated with antagonists was imaged continuously for 3-10 hrs, after which a 3D stack was captured from both the vehicle and antagonist treated areas for quantitative purposes. […] A similar study was conducted using 10 mM CBX.
Image Analysis. All quantitative analyses and processing of 3D/4D imaging data were performed using Imaris 7.0 software (Bitplane). Supplemental movies were constructed and annotated using Adobe Premiere Pro CS4. Microglia “honeycomb” reactions were quantified from 434×434×150 μm (xyz) 3D image stacks obtained at selected time points in CX3CR1^gfp/+ mice. This was accomplished by measuring the total length of microglial processes in contact with the glial limitans. […] Afterward, 10 microglia per mouse were randomly selected for quantification of process length. Only cells with all of their processes in the field of view and no more than 50 μm beneath the skull bone were quantified. Microglial processes that were touching (flat against) the glial limitans were labeled and measured using the Imaris “filaments” tool. […]

[2] = system: microglia processes associated with the glial limitans; assay: Length of microglial processes in contact with the glial limitans after meningeal compression injury; type: in vivo, mice; details: for length of microglial processes in contact with the glial limitans: transcranial administration of antagonist before injury, three hours following injury, p<0.05, FIG. 4
Experimental: as §1
(§2) Intravital two-photon laser scanning microscopy. […] Fluorescence emission was separated by high efficiency custom dichroic mirrors (Semrock) and collected with a NDD4 external detector (Leica). […]
(§3) Purinergic receptor, connexin hemichannel, and ROS antagonism. […] For most studies, the skull bone pre-incubated with antagonists was imaged continuously for 3-10 hrs, after which a 3D stack was captured from both the vehicle and antagonist treated areas for quantitative purposes. […]
Image Analysis. All quantitative analyses and processing of 3D/4D imaging data were performed using Imaris 7.0 software (Bitplane). […] Microglia “honeycomb” reactions were quantified from 434×434×150 μm (xyz) 3D image stacks obtained at selected time points in CX3CR1^gfp/+ mice. […] Afterward, 10 microglia per mouse were randomly selected for quantification of process length. Only cells with all of their processes in the field of view and no more than 50 μm beneath the skull bone were quantified. Microglial processes that were touching (flat against) the glial limitans were labeled and measured using the Imaris “filaments” tool. […]

[3] = Skull bone permeability analysis (transcranial permeation of fluorescent probes); type: in vivo, mice; details: applied to intact skull bone as 3 mm bubble; 2P microscopy immediately after loading; FIG. 2
Experimental: Skull bone permeability analysis. For skull bone permeability studies, the following rhodamine-labeled dextrans were placed directly on the intact skull bone for up to 30 min: 3,000 MW (25 mM), 10,000 MW (5 mM), 40,000 MW (1 mM), and 70,000 MW (0.5 mM). SR101 (1 mM), a sulforhodamine dye, was used as a representative of 600 MW compound. Compounds were replenished as needed to prevent drying. Following the incubation period, the skull bone was quickly thinned and imaged. A 3D stack was captured to determine if the fluorescence could be found beneath the skull bone.
This example illustrates the effect of molecular weight of the compounds on the rate of transcranial permeation. To define the time and size of compounds that pass directly through the intact (non-thinned) skull, […] SR101 (600 MW) or different sized rhodamine-dextrans (25 mM 3,000 MW; 5 mM 10,000 MW; 1 mM 40,000 MW; 0.5 mM 70,000 MW) were applied to the skull bone. A 3 mm diameter bubble was left on the skull surface for the amount of time noted in minutes on the y axis of the table above. Because all compounds fluoresced, 2P microscopy was performed immediately after transcranial loading to determine if the compounds were present in the subarachnoid space.

neutrophils = assay: Neutrophil recruitment following meningeal compression injury; type: in vivo, LysM-GFP transgenic reporter mouse; details: p<0.05
Experimental: Skull Thinning & Compression Injury. For imaging experiments, mice were anesthetized with ketamine (85 mg/kg), xylazine (13 mg/kg), and acepromazine (2 mg/kg) in PBS and maintained at a core temperature of 37° C. The skull bone over the barrel cortex was then thinned to a thickness of ˜30-40 μm as described (PMID: 20134419). For this procedure, the bone was manually thinned over a 30 minute period, and the amount of downward pressure was kept to a minimum. To induce a compression injury, the skull was thinned within 5 min to a thickness of ˜10-15 μm. Once thinned, the blunt of a surgical instrument was used to gently press the pliable skull bone downward. […]
as §2, §3
Image Analysis. All quantitative analyses and processing of 3D/4D imaging data were performed using Imaris 7.0 software (Bitplane). […] Afterward, 10 microglia per mouse were randomly selected for quantification of process length. […]

Compound: S=C=Nc1cccc(NC(=S)NCCCCNC(=S)Nc2cccc(N=C=S)c2)c1 [MRS2578]
- percentage of phagocytic (jellyfish) microglia in the imaging field [1]: significantly reduced

Compound: CSc1nc(N)c2ncn([C@@H]3O[C@H](COP(=O)(O)O)[C@@H](O)[C@H]3O)c2n1 [MeSAMP]
- length of microglial processes in contact with the glial limitans [2]: significantly reduced
- percentage of phagocytic (jellyfish) microglia in the imaging field [1]: significantly reduced

Compound: O=S(=O)([O-])c1cc(S(=O)(=O)O)ccc1C1=c2cc3c4c(c2Oc2c1cc1c5c2CCCN5CCC1)CCC[N+]=4CCC3 [SR101]
- rate of passage through the skull into the subarachnoid space [3]: pass through the skull more quickly than larger compounds

Compound: N[C@@H](CCC(=O)N[C@@H](CS)C(=O)NCC(=O)O)C(=O)O [glutathione]
- microglia extending their processes and contacting the glial limitans ([2]; pretreatment with 100 mM, transcranial, FIG. 10): completely prevented
- recruitment of neutrophils following compression injury (neutrophils; pretreatment with 100 mM, transcranial, FIG. 8): significantly reduced
- formation of phagocytic (jellyfish) microglia following injury ([1]; pretreatment with 100 mM, transcranial, FIG. 9): eliminated the formation

Compound: Nc1ncnc2c1ncn2[C@@H](C=O)O[C@@H](C=O)COP(=O)(O)OP(=O)(O)OP(=O)(O)O [oxidized ATP]
- neutrophil recruitment to the injury site (neutrophils; transcranial P2X7 antagonist applied to skull before injury, FIG. 5): completely blocked
- percentage of phagocytic (jellyfish) microglia in the imaging field [1]: not

Compound: trinitrophenyl-ATP hydrate [TNP-ATP hydrate]
- length of microglial processes in contact with the glial limitans [2]: significantly reduced
- percentage of phagocytic (jellyfish) microglia in the imaging field [1]: significantly reduced
